Laboratory results: patent US20220098154A1 (IDEAYA Biosciences, Inc., priority 2019, published 2022)

Target: T1, Pol theta polymerase domain (residues 1819-2590) (Homo sapiens, UniProt O75417)
T1 construct: Pol theta polymerase domain (residues 1819-2590)
T1 sequence (O75417 1819-2590): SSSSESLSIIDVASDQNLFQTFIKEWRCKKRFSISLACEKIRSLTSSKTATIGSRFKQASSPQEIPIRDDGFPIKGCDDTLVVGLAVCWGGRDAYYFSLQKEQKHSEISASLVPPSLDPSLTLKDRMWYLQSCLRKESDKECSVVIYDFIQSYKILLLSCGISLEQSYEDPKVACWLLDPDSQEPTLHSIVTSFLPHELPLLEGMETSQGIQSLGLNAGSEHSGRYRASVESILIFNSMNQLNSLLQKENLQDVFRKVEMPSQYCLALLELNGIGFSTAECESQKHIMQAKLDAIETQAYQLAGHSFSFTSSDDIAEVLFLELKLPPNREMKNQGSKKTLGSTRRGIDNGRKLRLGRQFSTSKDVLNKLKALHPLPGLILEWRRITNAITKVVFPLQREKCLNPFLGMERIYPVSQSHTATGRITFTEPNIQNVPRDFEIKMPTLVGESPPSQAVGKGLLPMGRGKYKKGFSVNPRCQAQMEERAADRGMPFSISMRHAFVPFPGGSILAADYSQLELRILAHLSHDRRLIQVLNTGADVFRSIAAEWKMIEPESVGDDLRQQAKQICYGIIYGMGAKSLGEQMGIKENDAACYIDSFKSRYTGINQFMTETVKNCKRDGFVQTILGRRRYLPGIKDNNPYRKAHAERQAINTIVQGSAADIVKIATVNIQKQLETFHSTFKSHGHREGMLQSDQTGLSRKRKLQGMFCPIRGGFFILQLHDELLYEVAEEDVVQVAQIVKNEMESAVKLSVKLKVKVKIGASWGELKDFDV
Test: Primer extension assay: inhibition of polymerase activity of Pol theta (molecular beacon fluorescence)
Type: biochemical
Conditions: Pol theta polymerase domain 4 nM; 15 min pre-incubation; fluorescence change over 30 min (ex 485 nm, em 535 nm); 11-point dilution series
Experimental: The ability of the compounds of Formula (I) to inhibit polymerase activity of Pol theta was determined using the assay described below.
A mixture of 20 uL of Pol theta polymerase domain (residues 1819-2590) at a final concentration of 4 nM in assay buffer (20 m M TRIS, pH 7.80, 50 mM KCl, 10 mM MgCl2, 1 mM DTT, 0.01% BSA, 0.01% Tween20) was added to test compounds (11-point dilution series of test compounds) except the low control wells without test compounds. The above enzyme and test compound inhibitor mixture was then incubated at room temperature for 15 min. An equal volume (20 μl) of dNTP substrate mixture (48 μM) and primed molecular beacon DNA (obtained by annealing template SEQ ID NO 2: (5′-CCTTCCTCCCGTGTCTTG-TACCTTCCCGTCA-GGAGGAAGG-3′) with 5′-TAMRA and 3′-BHQ and primer DNA (SEQ ID NO: 3; 5′-GACGGGAAGG-3′) in 10 mM Tris-HCl pH 8.0, 100 mM NaCl buffer) (96 nM) in assay buffer was added to all the test wells. The inhibition activity was measured by monitoring the fluorescence change over 30 min at 535 nm upon excitation at 485 nm. The high control (DMSO with enzyme) with high fluorescence intensity represents no inhibition of polymerase reaction while the low control (DMSO with buffer) with low fluorescence intensity represents full inhibition of polymerase activity. Slope of the reaction progress curves were used to calculate the rate of polymerization. The rates were used to determine the percent inhibition using a four-parameter inhibition model to generate IC50, Hill slope and max inhibition.

Row | IC50 [nM] | Structure (SMILES)
1 | < 200 | Cc1nc(NCC(=O)N(C)c2ccc(Cl)c(Cl)c2)c(C#N)c(C)c1Cl [Example 32, 2-(5-chloro-3-cyano-4,6-dimethylpyridin-2-ylamino)-N-(3,4-dichlorophenyl)-N-methylacetamide]
2 | < 200 | Cc1nc(NCC(=O)N(C)c2ccc(Br)cc2)c(C#N)c(C)c1Cl [Example 39, N-(4-bromophenyl)-2-(5-chloro-3-cyano-4,6-dimethyl-pyridin-2-ylamino)-N-methylacetamide]
3 | < 200 | Cc1nc(N[C@@H](C)C(=O)N(C)c2ccc(F)cc2)c(C#N)c(C)c1Cl [Example 25, (S)-2-((5-chloro-3-cyano-4,6-dimethylpyridin-2-yl)-amino)-N-(4-fluorophenyl)-N-methylpropanamide]
4 | 200 to 500 | Cc1nc(NCC(=O)N(c2ccc(Cl)cc2)C(C)C)c(C#N)c(C)c1Cl [Example 30, 2-[(5-chloro-3-cyano-4,6-dimethylpyridin-2-yl)-amino]-N-(4-chlorophenyl)-N-(propan-2-yl)-acetamide]
5 | < 200 | CN(C(=O)CNc1nc(C(F)(F)F)cc(C(F)(F)F)c1C#N)c1ccc2sccc2c1 [Example 53, N-(benzo[b]thiophen-5-yl)-2-((3-cyano-4,6-bis(trifluoromethyl)pyridin-2-yl)-amino)-N-methylacetamide]
6 | < 200 | Cc1nc(NCC(=O)N(C)c2ccc(Cl)cc2)c(C#N)c(C)c1Cl [Example 40, 2-(5-chloro-3-cyano-4,6-dimethylpyridin-2-ylamino)-N-(4-chlorophenyl)-N-methylacetamide]
7 | < 200 | CN(C(=O)CNc1nc(C(F)(F)F)cc(C(F)(F)F)c1C#N)c1ccc2occc2c1 [Example 46, N-(benzofuran-5-yl)-2-((3-cyano-4,6-bis(trifluoromethyl)pyridin-2-yl)amino)-N-methylacetamide]
8 | < 200 | Cc1nc(OCC(=O)N(C)c2ccc(Cl)cc2)c(C#N)c(C)c1Cl [Example 41, 2-[(5-chloro-3-cyano-4,6-dimethylpyridin-2-yl)oxy]-N-(4-chloro-phenyl)-N-methylacetamide]
9 | < 200 | CN(C(=O)CNc1nc(C(F)(F)F)cc(C(F)(F)F)c1C#N)c1ccc(OC2CC2)cc1 [Example 5, 2-((3-cyano-4,6-bis(trifluoromethyl)pyridin-2-yl)-amino)-N-(4-cyclopropoxyphenyl)-N-methyl-acetamide]
10 | < 200 | CN(C(=O)CNc1nc(C(F)(F)F)cc(C(F)(F)F)c1C#N)c1ccc2[nH]ccc2c1 [Example 56, 2-((3-cyano-4,6-bis(trifluoromethyl)pyridin-2-yl)amino)-N-(1H-indol-5-yl)-N-methylacetamide]
11 | 200 to 500 | CN(C(=O)CNc1nc(C(F)(F)F)cc(C(F)(F)F)c1C#N)c1ccc(C#N)cc1 [Example 3, 2-((3-cyano-4,6-bis(trifluoromethyl)pyridin-2-yl)-amino)-N-(4-cyanophenyl)-N-methylacetamide]
12 | < 200 | Cc1nc(NCC(=O)N(C)c2ccc(F)cc2)c(C#N)c2ccccc12 [Example 19, 2-[(4-cyano-1-methylisoquinolin-3-yl)amino]-N-(4-fluorophenyl)-N-methylacetamide]
13 | < 200 | CN(C(=O)CNc1nc(C(F)(F)F)cc(C(F)(F)F)c1C#N)c1ccc2nccnc2c1 [Example 58, 2-((3-cyano-4,6-bis(trifluoromethyl)pyridin-2-yl)amino)-N-methyl-N-(quinoxalin-6-yl)acetamide]
14 | < 200 | Cc1nc(OCC(=O)N(C)c2ccc(Br)cc2)c(C#N)c(C)c1Cl [Example 35, N-(4-bromophenyl)-2-[(5-chloro-3-cyano-4,6-dimethylpyridin-2-yl)oxy]-N-methylacetamide]
15 | < 200 | N#Cc1c(C(F)(F)F)cc(C(F)(F)F)nc1NCC(=O)N(c1ccc(F)cc1)C1CC1 [Example 4, 2-((3-cyano-4,6-bis(trifluoromethyl)pyridin-2-yl)-amino)-N-cyclopropyl-N-(4-fluorophenyl)acetamide]
16 | 500 to 1000 | CN(C(=O)CNc1nc(C(F)(F)F)cc(C(F)(F)F)c1C#N)c1ccc(F)cc1C#N [Example 49, 2-((3-cyano-4,6-bis(trifluoromethyl)pyridin-2-yl)amino)-N-(2-cyano-4-fluorophenyl)-N-methylacetamide]
17 | < 200 | CN(C(=O)CNc1nc(C(F)(F)F)cc(C(F)(F)F)c1C#N)c1ccc2c(cnn2C)c1 [Example 54, 2-((3-cyano-4,6-bis(trifluoromethyl)pyridin-2-yl)amino)-N-methyl-N-(1-methyl-1H-indazol-5-yl)acetamide]
18 | 200 to 500 | Cc1nc(NCC(=O)N(C)c2cccc(C#N)c2)c(C#N)c(C)c1Cl [Example 21, 2-((5-chloro-3-cyano-4,6-dimethylpyridin-2-yl)-amino)-N-(3-cyanophenyl)-N-methylacetamide]
19 | 200 to 500 | Cc1nc(N[C@@H](CC(N)=O)C(=O)N(C)c2ccc(F)cc2)c(C#N)c(C)c1Cl [Example 18, (S)-2-(5-chloro-3-cyano-4,6-dimethylpyridin-2-yl-amino)-N1-(4-fluorophenyl)-N1-methylsuccinamide]
20 | 500 to 1000 | CN(C(=O)CNc1nc(C(F)(F)F)cc(C(F)(F)F)c1C#N)c1cccc(C(N)=O)c1 [Example 1, 3-(2-(3-cyano-4,6-bis(trifluoromethyl)pyridin-2-yl-amino)-N-methylacetamido)benzamide]
21 | < 200 | Cc1nc(OCC(=O)N(C)c2ccc(F)cc2)c(C#N)c(C)c1Cl [Example 43, 2-[(5-chloro-3-cyano-4,6-dimethylpyridin-2-yl)oxy]-N-(4-fluoro-phenyl)-N-methylacetamide]
22 | < 200 | CN(C(=O)CNc1nc(C(F)(F)F)cc(C(F)(F)F)c1C#N)c1ccc(OC(F)(F)F)cc1 [Example 6, 2-((3-cyano-4,6-bis(trifluoromethyl)pyridin-2-yl)-amino)-N-methyl-N-(4-(trifluoromethoxy)phenyl)-acetamide]
23 | < 200 | Cc1nc(NCC(=O)N(C)c2ccc(F)cc2)c(C#N)c2c1CCC2 [Example 28, 2-(4-cyano-1-methyl-6,7-dihydro-5H-cyclopenta[c]-pyridin-3-ylamino)-N-(4-fluorophenyl)-N-methylacetamide]
24 | < 200 | CN(C(=O)CNc1cc(C(F)(F)F)cc(C(F)(F)F)c1)c1ccc(F)cc1 [Example 12, 2-((3,5-bis(trifluoromethyl)phenyl)amino)-N-(4-fluorophenyl)-N-methylacetamide]
25 | < 200 | CN(C(=O)CNc1cc(Cl)cc(C(F)(F)F)c1)c1ccc(F)cc1 [Example 13, 3-[[3-chloro-5-(trifluoromethyl)phenyl]amino]-N-(4-fluoro-phenyl)-N-methylacetamide]
26 | 200 to 500 | Cc1nc(N[C@@H](CCO)C(=O)N(C)c2ccc(F)cc2)c(C#N)c(C)c1Cl [Example 15, (S)-2-(5-chloro-3-cyano-4,6-dimethylpyridin-2-yl-amino)-N-(4-fluorophenyl)-4-hydroxy-N-methyl-butanamide]
27 | < 200 | CN(C(=O)CNc1nc(C(F)(F)F)cc(C(F)(F)F)c1C#N)c1ccc(F)cc1 [Example 10, 2-(3-cyano-4,6-bis(trifluoromethyl)pyridin-2-yl-amino)-N-(4-fluorophenyl)-N-methylacetamide]
28 | < 200 | CN(C(=O)CNc1nc(C(F)(F)F)cc(C(F)(F)F)c1C#N)c1ccc2c(c1)ncn2C [Example 50, 2-((3-cyano-4,6-bis(trifluoromethyl)pyridin-2-yl)amino)-N-methyl-N-(1-methyl-1H-benzo[d]imidazol-5-yl)acetamide]
